Experimental data taken from article PMC11373624, “Development and preclinical characterization of a novel radiotheranostic EphA2-targeting bicyclic peptide” (Theranostics, 2024).
Numbered stars: 1 amine (or outer) side, 2 acyl side, 3 side chain; on linkers, the order of the positions; unused ones are H or OH. Bridge positions count the residues as written; N and C are the ends. Square brackets hold non-standard residues; d marks the D form. Peptide text beside a SMILES is read from it. * marks the point of attachment. DOTA = O=C(O)CN1CCN(CC(=O)O)CCN(CC(=O)*)CCN(CC(=O)O)CC1; TATA = O=C(CC[*:1])N1CN(C(=O)CC[*:2])CN(C(=O)CC[*:3])C1; d(hArg) = N=C(N)NCCCC[C@@H](N)C(=O)O; dHyp = O=C(O)[C@H]1C[C@H](O)CN1; dCba = N[C@H](CC1CCC1)C(=O)O; βAla = NCCC(=O)O; Sar = CNCC(=O)O

Molecular target: T1, Human EphA2 (Homo sapiens, UniProt P29317)
T1 construct: Human EphA2 (residues 27-529) was cloned into pEXPR-IBA44; made in house; host or cells: HEK293 f/s cells
T1 sequence (P29317 27-529): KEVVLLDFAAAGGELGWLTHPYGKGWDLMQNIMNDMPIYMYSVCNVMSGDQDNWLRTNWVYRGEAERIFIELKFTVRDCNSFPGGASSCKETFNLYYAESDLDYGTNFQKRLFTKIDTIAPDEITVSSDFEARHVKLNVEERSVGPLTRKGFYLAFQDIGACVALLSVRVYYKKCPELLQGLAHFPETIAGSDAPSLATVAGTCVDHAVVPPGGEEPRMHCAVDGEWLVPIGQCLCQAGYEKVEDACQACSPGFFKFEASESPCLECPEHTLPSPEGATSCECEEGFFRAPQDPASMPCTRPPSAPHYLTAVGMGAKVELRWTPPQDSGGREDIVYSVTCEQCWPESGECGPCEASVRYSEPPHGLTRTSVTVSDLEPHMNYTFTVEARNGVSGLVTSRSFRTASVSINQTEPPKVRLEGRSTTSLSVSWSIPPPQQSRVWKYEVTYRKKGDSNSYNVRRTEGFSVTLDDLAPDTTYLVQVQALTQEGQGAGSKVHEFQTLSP
Test: SPR binding to human EphA2
Description: Human EphA2 (residues 27-529) was cloned into pEXPR-IBA44 between the 5' NheI and 3' BsaI sites to make constructs expressing a BM40 signal sequence and C-terminal 6xHIS tag. For the expression and purification of the protein, HEK293 f/s cells at 1 x 10^6/mL in freestyle media (Thermo Fisher) were transfected with 1 µg DNA per million cells by PEI either 2:1 or 3:1 PEI:DNA ratio. On day 2 valproic acid was added to a 2.2 mM concentration. The supernatant was harvested 5 days post transfection and loaded on a 1 ml Ni-NTA agarose resin (Thermo Fisher) (wash buffer: 20 mM HEPES pH 7.6, 0.5 M NaCl, 5 mM imidazole, 0.01% Tween-20 buffer; elution buffer: 20 mM HEPES pH 7.6, 0.5 M NaCl, 300 mM imidazole, 0.01% Tween-20). The protein was concentrated to a volume of 2 mL, loaded onto an S-200 Superdex column (GE Healthcare) and eluted with 20 mM HEPES pH 7.6, 150 mM NaCl, 0.01% Tween-20 at a flow rate of 1 mL/min. Fractions were collected and those containing human EphA2 protein were concentrated for further use.
SPR experiments were performed on a Biacore 8K+ (Cytiva Life Sciences, USA) instrument, with methods matched for both human and mouse EphA2 protein. Protein was captured on to a Cytiva NTA sensor chip (Cytiva Life Sciences), via the expressed His-tag; this was followed by primary amine coupling chemistry to covalently immobilize the protein to the chip at 25°C. Initially the surface was injected with 0.5 mM NiCl2 for 2 minutes, followed by activation of the carboxymethyl dextran surface for 7 minutes using an injection of a 1:1 ratio of 0.4 M 1-ethyl-3-(3-dimethylaminopropyl) carbodiimide hydrochloride (EDC)/0.1 M N-hydroxy succinimide (NHS) at a flow rate of 10 µL/min.
Human EphA2 protein was captured to the Ni-NTA surface to a level of 200-300 RU and Mouse EphA2 to 500-800 RU; the residual activated groups were then blocked with a 7 minute injection of 1 M ethanolamine (pH 8.5):HBS-N (1:1). Finally, the Ni-NTA surface was chelated with a 1-minute injection of 350 mM EDTA.
Peptide was prepared in PBS/0.05% Tween 20 with a final DMSO concentration of 0.5%. The top peptide concentration was 100 or 500 nM and 5 further 3-fold dilutions. The peptide was titrated over the chip using single cycle kinetics at 25°C at a flow rate of 75 µL/min with 60 second association and 4000 second dissociation. All data were double referenced for blank injections and reference surface using standard processing procedures. Data was characterized with a 1:1 kinetic binding model to determine kinetic rate constants ka (M^-1s^-1) and kd (s^-1) and equilibrium dissociation constant KD (nM). All data processing was performed using Cytiva Insight Evaluation (Cytiva Life Sciences, USA).

Kd (human EphA2, read-out: no binding up to (peptide concentration)): > 5 µM
binding to human EphA2 by SPR (in words): no binding
SMILES: CC(C)C[C@H]1NC(=O)[C@H]2CCCN2C(=O)[C@@H](CC(N)=O)NC(=O)[C@@H](C(C)C)NC(=O)[C@@H](CC2CCC2)NC(=O)[C@H]2C[C@H](O)CN2C(=O)[C@H](NC(=O)[C@@H](CC(=O)O)NC(=O)[C@@H](CCCCNC(=N)N)NC(=O)[C@@H](C)NC(=O)CN(C)C(=O)CN(C)C(=O)CN(C)C(=O)CN(C)C(=O)CN(C)C(=O)CN(C)C(=O)CN(C)C(=O)CN(C)C(=O)CN(C)C(=O)CN(C)C(=O)CCNC(=O)CN2CCN(CC(=O)O)CCN(CC(=O)O)CCN(CC(=O)O)CC2)CSCCC(=O)N2CN3CN(C2)C(=O)CCSC[C@@H](NC1=O)C(=O)N[C@H](CC(C)C)C(=O)N[C@H](Cc1c[nH]cn1)C(=O)N1CCC[C@@H]1C(=O)N[C@@H](CC(=O)O)C(=O)N[C@H](Cc1c[nH]c2ccccc12)C(=O)N[C@H](CCCCNC(=N)N)C(=O)N[C@@H](C(N)=O)CSCCC3=O [BCY26443, [DOTA]-[B-Ala]-[Sar10]-[dAla]-[dHArg]-[dAsp]-[dCys]-[dHyP]-[dCba]-[dVal]-[dAsn]-[dPro]-[dLeu]-[dCys]-[dLeu]-[dHis]-[dPro]-Asp-[dTrp]-[dHArg]-[dCys]-CONH2] ({DOTA-βAla}-[Sar][Sar][Sar][Sar][Sar][Sar][Sar][Sar][Sar][Sar][dA][d(hArg)][dD][dC][dHyp][dCba][dV][dN][dP][dL][dC][dL][dH][dP]D[dW][d(hArg)][dC]-NH2; linker 14-21-28 via TATA)
